Oligonucleotides are written 5' to 3', each unit as a sugar letter and its base; * is a phosphorothioate linkage, no mark a phosphodiester; rarer units and linkages stand in square brackets, end groups in braces. Plain capitals give the bases only. e = 2'-O-(2-methoxyethyl) (MOE); k = constrained ethyl (cEt); [5mC] = 5-methylcytosine; d = 2'-deoxy (DNA)
Experiments:
AR mRNA [1] = experiment: Dose-dependent antisense inhibition of human AR in HuVEC cells (electroporation, qRT-PCR RTS3559, IC50); format: cell-based; settings: HuVEC
Method: (§1) After a treatment period of approximately 16 hours, RNA was isolated from the cells and AR mRNA levels were measured by quantitative real-time PCR. Human AR primer probe set RTS3559 was used to measure mRNA levels. AR mRNA levels were adjusted according to total RNA content, as measured by RIBOGREEN®. […] The antisense oligonucleotides were tested in a series of experiments that had similar culture conditions.
as §1, §1, §1, §1
(§2) After a treatment period of approximately 16 hours, RNA was isolated from the cells and AR mRNA levels were measured by quantitative real-time PCR. Human AR primer probe set RTS3559 was used to measure mRNA levels. AR mRNA levels were adjusted according to total RNA content, as measured by RIBOGREEN®.
as §2

AR mRNA [2] = experiment: Antisense inhibition of human AR in HuVEC cells, single concentration (electroporation, qRT-PCR RTS3559); format: cell-based
Method: Antisense oligonucleotides were designed targeting an AR nucleic acid and were tested for their effects on AR mRNA in vitro. The antisense oligonucleotides were tested in a series of experiments that had similar culture conditions. […] Human primer probe set RTS3559 (forward sequence [NT], designated herein as SEQ ID NO: 9; reverse sequence [NT], designated herein as SEQ ID NO: 10; probe sequence [NT], designated herein as SEQ ID NO: 11) was used to measure mRNA levels. AR mRNA levels were adjusted according to total RNA content, as measured by RIBOGREEN®. […] A total of 155 oligonucleotides were tested. Additional antisense oligonucleotides were designed targeting an AR nucleic acid and were tested for their effects on AR mRNA in vitro. […] Human primer probe set RTS3559 was used to measure mRNA levels. AR mRNA levels were adjusted according to total RNA content, as measured by RIBOGREEN®. […] A total of 82 oligonucleotides were tested. Additional antisense oligonucleotides were designed targeting an AR nucleic acid and were tested for their effects on AR mRNA in vitro. […] Human primer probe set RTS3559 was used to measure mRNA levels. AR mRNA levels were adjusted according to total RNA content, as measured by RIBOGREEN®. […] A total of 40 oligonucleotides were tested. Additional antisense oligonucleotides were designed targeting an AR nucleic acid and were tested for their effects on AR mRNA in vitro. […] Human primer probe set RTS3559 was used to measure mRNA levels. AR mRNA levels were adjusted according to total RNA content, as measured by RIBOGREEN®. […] A total of 75 oligonucleotides were tested. Additional antisense oligonucleotides were designed targeting an AR nucleic acid and were tested for their effects on AR mRNA in vitro. […] Human primer probe set RTS3559 was used to measure mRNA levels. AR mRNA levels were adjusted according to total RNA content, as measured by RIBOGREEN®. […] A total of 616 oligonucleotides were tested. Additional antisense oligonucleotides were designed targeting an AR nucleic acid and were tested for their effects on AR mRNA in vitro. […] Human primer probe set RTS3559 was used to measure mRNA levels. AR mRNA levels were adjusted according to total RNA content, as measured by RIBOGREEN®. […] A total of 385 oligonucleotides were tested.

[3] = Table 31, electroporation, approximately 16 hours
[4] = Table 29, electroporation, approximately 16 hours
[5] = Table 32, electroporation, approximately 16 hours
[6] = Table 20, 500 nM oligonucleotide, electroporation, approximately 24 hours, relative to untreated control
[7] = Table 36, electroporation, approximately 16 hours
[8] = Table 30, electroporation, approximately 16 hours
[9] = Table 33, electroporation, approximately 16 hours
[10] = Table 34, electroporation, approximately 16 hours

583821 (k[5mC]*kA*kG*dA*dA*dA*dT*dG*dG*dT*d[5mC]*dG*dA*kA*kG*kT) [compound 583821]
percent inhibition of AR, 46.9 nM (AR mRNA [1]; [3]): 11%
percent inhibition of AR, 187.5 nM (AR mRNA [1]; [3]): 35%
percent inhibition of AR, 750.0 nM (AR mRNA [1]; [3]): 61%
percent inhibition of AR, 3000.0 nM (AR mRNA [1]; [3]): 77%
IC50 (AR mRNA [1]; [3]): 460 nM
% inhibition (AR mRNA [2]; Table 19, 500 nM oligonucleotide, electroporation, approximately 24 hours, relative to untreated control): 42%

583583 (antisense kG*kA*k[5mC]*dT*dG*dA*dG*dG*d[5mC]*dA*dG*d[5mC]*dT*kG*k[5mC]*kG) [compound 583583]
percent inhibition of AR, 46.9 nM (AR mRNA [1]; [4]): 21%
percent inhibition of AR, 187.5 nM (AR mRNA [1]; [4]): 31%
percent inhibition of AR, 750.0 nM (AR mRNA [1]; [4]): 49%
percent inhibition of AR, 3000.0 nM (AR mRNA [1]; [4]): 64%
IC50 (AR mRNA [1]; [4]): 790 nM
% inhibition (AR mRNA [2]; 500 nM ASO, ~24 h, Table 16): 45%

569220 (antisense eA*kT*kG*kG*dT*dT*dG*dA*dT*dT*dT*dA*kA*kT*kG*eG) [compound 569220]
percent inhibition of AR (AR mRNA [1]; 31.25 nM, ~16 h, Table 14): 11%
percent inhibition of AR (AR mRNA [1]; 62.5 nM, ~16 h, Table 14): 29%
percent inhibition of AR (AR mRNA [1]; 125.0 nM, ~16 h, Table 14): 34%
percent inhibition of AR (AR mRNA [1]; 500.0 nM, ~16 h, Table 14): 59%
percent inhibition of AR (AR mRNA [1]; 1000.0 nM, ~16 h, Table 14): 78%
IC50 (AR mRNA [1]; ~16 h, Table 14): 275 nM
% inhibition (AR mRNA [2]; 1,000 nM ASO, ~24 h, Table 13): 58%

583865 (kT*kT*k[5mC]*dA*dG*dT*dG*d[5mC]*dT*d[5mC]*dT*dT*dG*k[5mC]*k[5mC]*kT; antisense) [compound 583865]
percent inhibition of AR, 46.9 nM (AR mRNA [1]; [5]): 33%
percent inhibition of AR, 187.5 nM (AR mRNA [1]; [5]): 42%
percent inhibition of AR, 750.0 nM (AR mRNA [1]; [5]): 68%
percent inhibition of AR, 3000.0 nM (AR mRNA [1]; [5]): 85%
IC50 (AR mRNA [1]; [5]): 190 nM
% inhibition (AR mRNA [2]; [6]): 45%

583855 (k[5mC]*k[5mC]*kT*dT*dT*dG*d[5mC]*dA*dT*dT*d[5mC]*dG*dG*k[5mC]*k[5mC]*kA; antisense) [compound 583855]
percent inhibition of AR, 46.9 nM (AR mRNA [1]; [5]): 22%
percent inhibition of AR, 187.5 nM (AR mRNA [1]; [5]): 50%
percent inhibition of AR, 750.0 nM (AR mRNA [1]; [5]): 81%
percent inhibition of AR, 3000.0 nM (AR mRNA [1]; [5]): 91%
IC50 (AR mRNA [1]; [5]): 180 nM
% inhibition (AR mRNA [2]; [6]): 44%

583649 (antisense kA*kG*kG*d[5mC]*dT*d[5mC]*dA*d[5mC]*dA*dG*dT*d[5mC]*dT*kG*kT*k[5mC]) [compound 583649]
percent inhibition of AR, 46.9 nM (AR mRNA [1]; [4]): 28%
percent inhibition of AR, 187.5 nM (AR mRNA [1]; [4]): 50%
percent inhibition of AR, 750.0 nM (AR mRNA [1]; [4]): 68%
percent inhibition of AR, 3000.0 nM (AR mRNA [1]; [4]): 84%
IC50 (AR mRNA [1]; [4]): 200 nM
% inhibition (AR mRNA [2]; 500 nM ASO, ~24 h, Table 17): 46%

584274 (kG*kT*kT*dA*dT*d[5mC]*dT*dT*dA*d[5mC]*dT*d[5mC]*dT*k[5mC]*k[5mC]*k[5mC]; antisense) [compound 584274]
percent inhibition of AR, 46.9 nM (AR mRNA [1]; [7]): 17%
percent inhibition of AR, 187.5 nM (AR mRNA [1]; [7]): 36%
percent inhibition of AR, 750.0 nM (AR mRNA [1]; [7]): 74%
percent inhibition of AR, 3000.0 nM (AR mRNA [1]; [7]): 93%
IC50 (AR mRNA [1]; [7]): 230 nM
% inhibition (AR mRNA [2]; Table 25, 1,000 nM oligonucleotide, electroporation, approximately 24 hours, relative to untreated control): 70%

549387 (kA*kG*k[5mC]*dT*dT*d[5mC]*dA*dT*d[5mC]*dT*d[5mC]*d[5mC]*dA*k[5mC]*kA*kG; antisense) [compound 549387]
percent inhibition of AR (AR mRNA [1]; 55.6 nM, ~16 h, Table 4): 9%
percent inhibition of AR (AR mRNA [1]; 166.7 nM, ~16 h, Table 4): 41%
percent inhibition of AR (AR mRNA [1]; 500.0 nM, ~16 h, Table 4): 68%
percent inhibition of AR (AR mRNA [1]; 1500.0 nM, ~16 h, Table 4): 92%
IC50 (AR mRNA [1]; ~16 h, Table 4): 261 nM
% inhibition (AR mRNA [2]; 500 nM ASO, electroporation, ~24 h, Table 1): 84%

583667 (antisense k[5mC]*kG*k[5mC]*dT*d[5mC]*dT*dG*dA*d[5mC]*dA*dG*d[5mC]*d[5mC]*kT*k[5mC]*kA) [compound 583667]
percent inhibition of AR, 46.9 nM (AR mRNA [1]; [8]): 35%
percent inhibition of AR, 187.5 nM (AR mRNA [1]; [8]): 55%
percent inhibition of AR, 750.0 nM (AR mRNA [1]; [8]): 73%
percent inhibition of AR, 3000.0 nM (AR mRNA [1]; [8]): 82%
IC50 (AR mRNA [1]; [8]): 140 nM
% inhibition (AR mRNA [2]; 500 nM ASO, ~24 h, Table 17): 42%

583892 (k[5mC]*kA*kG*d[5mC]*d[5mC]*dT*dA*dG*dG*d[5mC]*dT*d[5mC]*dT*k[5mC]*kG*k[5mC]; antisense) [compound 583892]
percent inhibition of AR, 46.9 nM (AR mRNA [1]; [9]): 22%
percent inhibition of AR, 187.5 nM (AR mRNA [1]; [9]): 38%
percent inhibition of AR, 750.0 nM (AR mRNA [1]; [9]): 68%
percent inhibition of AR, 3000.0 nM (AR mRNA [1]; [9]): 83%
IC50 (AR mRNA [1]; [9]): 270 nM
% inhibition (AR mRNA [2]; [6]): 35%

584158 (kG*kG*kT*dT*dA*dA*d[5mC]*dT*dT*dT*d[5mC]*dT*d[5mC]*kT*kG*kA; antisense) [compound 584158]
percent inhibition of AR, 46.9 nM (AR mRNA [1]; [7]): 14%
percent inhibition of AR, 187.5 nM (AR mRNA [1]; [7]): 37%
percent inhibition of AR, 750.0 nM (AR mRNA [1]; [7]): 70%
percent inhibition of AR, 3000.0 nM (AR mRNA [1]; [7]): 89%
IC50 (AR mRNA [1]; [7]): 260 nM
% inhibition (AR mRNA [2]; Table 24, 1,000 nM oligonucleotide, electroporation, approximately 24 hours, relative to untreated control): 69%

583700 (antisense kG*kA*kA*dG*dA*dG*dT*dT*d[5mC]*dA*dA*d[5mC]*dA*kG*kG*k[5mC]) [compound 583700]
percent inhibition of AR, 46.9 nM (AR mRNA [1]; [3]): 14%
percent inhibition of AR, 187.5 nM (AR mRNA [1]; [3]): 34%
percent inhibition of AR, 750.0 nM (AR mRNA [1]; [3]): 57%
percent inhibition of AR, 3000.0 nM (AR mRNA [1]; [3]): 71%
IC50 (AR mRNA [1]; [3]): 550 nM
% inhibition (AR mRNA [2]; 500 nM ASO, ~24 h, Table 18): 36%

583922 (kA*kG*kT*dT*dG*dT*dA*dG*dT*dA*dG*dT*d[5mC]*kG*k[5mC]*kG; antisense) [compound 583922]
percent inhibition of AR, 46.9 nM (AR mRNA [1]; [10]): 16%
percent inhibition of AR, 187.5 nM (AR mRNA [1]; [10]): 43%
percent inhibition of AR, 750.0 nM (AR mRNA [1]; [10]): 76%
percent inhibition of AR, 3000.0 nM (AR mRNA [1]; [10]): 92%
IC50 (AR mRNA [1]; [10]): 230 nM
% inhibition (AR mRNA [2]; Table 21, 500 nM oligonucleotide, electroporation, approximately 24 hours, relative to untreated control): 37%

583613 (antisense kG*k[5mC]*kA*dA*dT*dG*dT*dG*d[5mC]*dA*dG*d[5mC]*dT*kA*kG*k[5mC]) [compound 583613]
percent inhibition of AR, 46.9 nM (AR mRNA [1]; [4]): 24%
percent inhibition of AR, 187.5 nM (AR mRNA [1]; [4]): 60%
percent inhibition of AR, 750.0 nM (AR mRNA [1]; [4]): 70%
percent inhibition of AR, 3000.0 nM (AR mRNA [1]; [4]): 75%
IC50 (AR mRNA [1]; [4]): 190 nM
% inhibition (AR mRNA [2]; 500 nM ASO, ~24 h, Table 17): 51%

583662 (antisense kA*kG*kA*dA*dG*dA*d[5mC]*dA*d[5mC]*dA*d[5mC]*dG*dG*kT*kG*kG) [compound 583662]
percent inhibition of AR, 46.9 nM (AR mRNA [1]; [4]): 27%
percent inhibition of AR, 187.5 nM (AR mRNA [1]; [4]): 59%
percent inhibition of AR, 750.0 nM (AR mRNA [1]; [4]): 75%
percent inhibition of AR, 3000.0 nM (AR mRNA [1]; [4]): 75%
IC50 (AR mRNA [1]; [4]): 150 nM
% inhibition (AR mRNA [2]; 500 nM ASO, ~24 h, Table 17): 51%

Reference: patent USRE48461E1, “Modulation of androgen receptor expression” (Ionis Pharmaceuticals, Inc., priority 2012, dated 2021)
